# Measurements taken from US20070027181A1, “Benzylisoquinoline derivative- or bisbenzylisoquinoline derivative-containing psychotropic agent, analgesic and/or antiphlogistic, and health food” (EDUCATION CENTER OF TRADITIONAL, priority 2004, published 2007).
# Test system: mice
# Assay: locomotor activity (ultromotivity) test, evaluation of sedative action
# Assay type: in vivo, Male ICR mice
# Experimental: In the following Examples, all extracts and drugs used were dissolved in physiological saline before use for i.p. administration and the dose was 0.1 ml of physiological saline per 10 g of mouse body weight in either case. All extracts and drugs were suspended in physiological saline containing 1% sodium carboxymethylcellulose before use for oral administration and the dose was 0.1 ml of 1% sodium carboxymethylcellulose-containing physiological saline suspension per 10 g of mouse body weight in either case. Male ICR mice (Japan SLC) having a body weight of 25 to 30 g were used in the tests below unless otherwise stated, and were fed in advance at a room temperature of 23±1° C. and a relative humidity of 55±5% in the environment of a cycle of 12-hour-light from 7 a.m. to 7 p.m. and 12-hour-dark from 7 p.m. to 7 a.m. for 3 to 5 days. The mice were allowed to have water and feed freely.
# Twenty five mice were grouped into five groups each having five mice, to which 5 mg/kg of N-methylcoclaurine hydrochloride (treatment group 1-1: i.p. administration), 50 mg/kg of neferine hydrochloride (treatment group 1-2: oral administration, and treatment group 1-3: i.p. administration), 50 mg/kg of liensinine hydrochloride (treatment group 1-4: oral administration), or physiological saline (negative control group 1-1: i.p. administration) was administered. The ultromotivity of the mice was analyzed by using a locomotor activity monitoring system (NS-AS01, Neuroscience Inc.). The ultromotivity measurements were performed at an interval of 5 minutes for 60 minutes, and the ultromotivity was judged from the count at each measuring time.
# Similar tests were conducted by i.p. administration of 25 mg/kg of N-norarmepavine (treatment group 1-5, n=6), 25 mg/kg of O,O-dimethylcoclaurine (treatment group 1-6, n=5), 10 mg and 25 mg/kg of armepavine (respectively, treatment group 1-7, n=6, and treatment group 1-8, n=6), 10 mg and 25 mg/kg of O-methylarmepavine (respectively, treatment group 1-9, n=6, and treatment group 1-10, n=6), and physiological saline (negative control group 1-2, n=5). The ultromotivity measurements were performed at an interval of five minutes for 60 minutes, and the ultromotivity was subjected to a significant difference test (Tukey's method) by using the counts at respective measuring times.
# Tests were performed by using mice administered intraperitoneally with 25 mg/kg of neferine hydrochloride (treatment group 7-1, n=6), 25 mg/kg of liensinine hydrochloride (treatment group 7-2, n=6), and physiological saline (negative control group, n=6) as well as 5 mg/kg of diazepam (positive control group, n=6) and a rotarod equipment (Ugo Basile, Italy) and a locomotor activity monitoring system (NS-AS01, Neuroscience Inc.). The rotarod test was performed by placing a mouse on a rod having a diameter of 4 cm rotating at a speed of 8 rpm 15 minutes after drug administration and observing whether the mouse can stay on the rod without falling for three minutes. The individuals that had fallen from the rotating rod in the period of 3 minutes were judged that they are with motor coordination disorder. […] In addition, the ultromotivity measurements were performed at an interval of five minutes for 60 minutes, and the ultromotivity results were subjected to a significant difference test (Tukey's method) by using the counts at respective measuring times.
structure (smiles),measurement,setting,value
COc1ccc(C[C@@H]2c3cc(Oc4cc(C[C@@H]5c6cc(OC)c(OC)cc6CCN5C)ccc4O)c(OC)cc3CCN2C)cc1 [neferine],Significant difference test of ultromotivity,"25 mg/kg i.p., Tukey's method, 60 minutes",P < 0.01
same,Ultromotivity (count) 30 minutes,50 mg/kg i.p.,500 count
same,Ultromotivity (count) 60 minutes,"50 mg/kg i.p., 60 minutes",760 count
same,Ultromotivity (count) 30 minutes,50 mg/kg oral,500 count
same,Ultromotivity (count) 60 minutes,"50 mg/kg oral, 60 minutes",750 count
